These results are taken from patent publication US20050202463A1, “Modulators of dimethylarginine dimethylaminohydrolase and methods of use thereof” (priority 2003, published 2005).

One assay deals with mice. The experiment in a line: plasma glucose clearance after i.p. insulin (insulin sensitivity). The assay is classed as in vivo. Particulars: wild-type female mice, ADMA 75 mg/kg i.p. after 4 h fasting, insulin injected 2 h later, compared to PBS-treated wild-type mice. As to the method:
Experiments were performed to assess insulin sensitivity by measuring plasma glucose clearance rate in these DDAH transgenic mice. After 4 hours of fasting, wildtype female mice were injected intraperitoneally with either ADMA (75 mg/kg), which induces insulin resistance, or phosphate buffered saline (PBS); the same dosage was given to the transgenic mice (n=3 in each group). After two hours, insulin was injected; venous blood glucose was assayed by a glucometer every 5 minutes for an hour. The half-life of glucose disappearance from plasma was calculated using a first-order decay model; plasma ADMA was measured by HPLC.

The next assay has as its system ADMA levels. The following applies: reported in the literature (Stuhlinger et al. 2002; Wheatcroft et al. 2003); cited from earlier work.

As to `CN(C)C(N)=NCCC[C@H](N)C(=O)O` [ADMA, asymmetric dimethylarginine], in the assay with mice, the “plasma glucose response to insulin” value was “delayed and attenuated drop in plasma glucose in response to insulin”.

Consider `CN(C)C(=N)N=C(N)N` [metformin], for which the “effect on ADMA levels” value with ADMA levels is “decrease circulating ADMA levels”.
